PMC12154458, “High-Throughput Screens of Repurposing Hub and DOS Chemical Libraries Reveal Compounds with Novel and Potent Inhibitory Activity Against the Essential Non-Neuronal Acetylcholinesterase of Schistosoma mansoni (SmTAChE)” (International Journal of Molecular Sciences, 2025)
Like-named read-outs stand apart in the source and are kept apart here.

How the values were obtained:
rSmTAChE [1] = target: T1, rSmTAChE (Schistosoma mansoni, UniProt A0A3Q0KMM5); format: biochemical;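 on Inhibition (%) (Average): mostly 20 µM final but a few compounds at 5 or 10 µM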;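 on Inhibition (%) Replicate A: mostly 20 µM final but a few compounds at 5 or 10 µM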;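 on Inhibition (%) Replicate B: mostly 20 µM final but a few compounds at 5 or 10 µM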
rSmTAChE [2] = target: T1, rSmTAChE; test: biochemical
[3] = target: recombinant human acetylcholinesterase, rHsAChE (Homo sapiens, UniProt P22303); test: biochemical
[4] = read-out: qAC50 (IC50), rHsAChE
[5] = read-out: qAC50 (IC50), rSmTAChE
[6] = read-out: rSmTAChE HTS Inhibition (Ave, %)

Sequence of recombinant human acetylcholinesterase, rHsAChE (P22303 32-614): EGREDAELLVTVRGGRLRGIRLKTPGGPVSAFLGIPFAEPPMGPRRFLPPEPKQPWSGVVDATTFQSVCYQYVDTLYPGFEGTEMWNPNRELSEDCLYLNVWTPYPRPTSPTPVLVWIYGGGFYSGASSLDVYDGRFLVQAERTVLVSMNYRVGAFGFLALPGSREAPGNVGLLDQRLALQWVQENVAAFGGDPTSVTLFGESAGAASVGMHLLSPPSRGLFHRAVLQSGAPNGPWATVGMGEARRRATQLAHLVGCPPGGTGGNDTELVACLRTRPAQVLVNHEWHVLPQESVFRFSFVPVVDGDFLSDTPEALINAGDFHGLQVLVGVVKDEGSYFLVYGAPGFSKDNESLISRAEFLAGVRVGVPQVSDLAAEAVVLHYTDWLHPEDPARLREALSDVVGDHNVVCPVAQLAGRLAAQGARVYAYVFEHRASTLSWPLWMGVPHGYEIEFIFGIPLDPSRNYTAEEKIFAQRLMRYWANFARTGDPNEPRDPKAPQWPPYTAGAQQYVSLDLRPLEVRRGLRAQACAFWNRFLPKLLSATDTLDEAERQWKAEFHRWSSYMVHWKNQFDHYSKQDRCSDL
T1 sequence (A0A3Q0KMM5 27-661 limits assumed): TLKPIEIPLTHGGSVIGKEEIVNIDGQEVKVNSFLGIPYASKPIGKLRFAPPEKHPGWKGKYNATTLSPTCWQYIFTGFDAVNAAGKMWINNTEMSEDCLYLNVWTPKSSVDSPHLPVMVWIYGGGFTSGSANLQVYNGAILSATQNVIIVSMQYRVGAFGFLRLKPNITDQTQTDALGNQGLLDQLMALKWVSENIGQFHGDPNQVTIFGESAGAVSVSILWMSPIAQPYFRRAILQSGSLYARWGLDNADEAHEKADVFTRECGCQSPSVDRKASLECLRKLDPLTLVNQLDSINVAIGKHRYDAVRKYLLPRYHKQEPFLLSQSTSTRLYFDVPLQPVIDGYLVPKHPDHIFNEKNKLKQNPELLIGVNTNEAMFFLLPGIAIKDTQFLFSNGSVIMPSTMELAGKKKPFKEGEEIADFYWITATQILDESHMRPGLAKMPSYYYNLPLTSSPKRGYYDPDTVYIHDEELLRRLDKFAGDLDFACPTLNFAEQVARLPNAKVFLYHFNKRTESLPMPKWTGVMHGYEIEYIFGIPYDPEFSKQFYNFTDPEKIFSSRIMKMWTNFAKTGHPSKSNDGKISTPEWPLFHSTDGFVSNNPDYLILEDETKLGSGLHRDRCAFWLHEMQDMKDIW

Structure (SMILES)	Data Mode (curve class), rSmTAChE (rSmTAChE [1])	Inhibition (%) (Average) (rSmTAChE [2])	Inhibition (%) Replicate A (rSmTAChE [2])	Inhibition (%) Replicate B (rSmTAChE [2])	Data Mode (curve class), rHsAChE [3]	rSmTAChE Data Mode (rSmTAChE [1])	rHsAChE Data Mode [3]	other results
CC(C)c1onc(-c2c(Cl)cccc2Cl)c1COc1ccc(/C=C/c2cccc(C(=O)O)c2)c(Cl)c1 [GW-4064, reference compound]	decreasing	65.99%	66.57%	65.41%	decreasing			SI (Hs/Sm) (rSmTAChE [1]): 6.00; IC50 (rSmTAChE [1]; read-out: IC50 (µM) rSmTAChE): 1.47 µM; HTS/rSmTAChE Inhibition (Ave, %) (rSmTAChE [2]; 20 µM): 66.00%; IC50 ([3]; read-out: IC50 (µM) rHsAChE): 8.83 µM
CC(C)(C#N)c1ccc(N2C(=O)OCc3cnc4ccc(-c5cnc6ccccc6c5)cc4c32)cc1 [BRD-K24556407-001-02-3]	inactive	72.65%	73.71%	71.58%	inactive			
CN(Cc1ccc(C(C)(C)C)cc1)Cc1cccc2ccccc12 [BRD-K90630139-003-05-9]	inactive	62.99%	64.97%	61.01%	decreasing (weakly active)			IC50 [3, 4]: > 38 µM
COC(=O)/C=C/c1cccc(N(Cc2ccc(-c3ccc(N(C)C)cc3)cc2)C(=O)C2CCCCC2)c1 [BRD-K08864679-001-02-2]	inactive	67.27%	71.08%	63.46%	inactive			
COc1cccc(C#Cc2ccc([C@H]3[C@@H](C#N)N(C(=O)c4ccccn4)[C@@H]3CO)cc2)c1 [BRD-K61082257-001-01-7]		66.17%	65.93%	66.40%		decreasing (weakly active)	inactive	
C/C=C/c1cccc(-c2nc(C(=O)NCc3ccc(OC)cc3)cc3c2[C@@H](CCO)N([S@+]([O-])C(C)(C)C)C3)c1 [BRD-K73104592-001-03-5]		64.19%	65.92%	62.45%		inactive	inactive	
CC(=O)[C@@]12OC(C)(c3ccccc3)O[C@@H]1C[C@H]1[C@@H]3CCC4=CC(=O)CC[C@]4(C)[C@H]3CC[C@@]12C (stereo partly shown) [BRD-A41774846-001-01-4]	decreasing (weakly active)	86.37%	86.06%	86.68%	inactive			IC50 (rSmTAChE [1]; [5]): > 38 µM
N#Cc1ccc(N2NC3=C(CCc4cc(C(=O)O)ccc43)[C@@H]2C2CCCC2)cc1Cl [BRD-K51041191-001-01-4]	decreasing (weakly active)	66.80%	70.13%	63.46%	decreasing (weakly active)			IC50 (rSmTAChE [1]; [5]): > 38 µM; IC50 [3, 4]: > 38 µM
CCCCCCCCCCCCc1ccc(S(=O)(=O)Nc2nncs2)cc1 [BRD-K59745944-001-04-6]	decreasing	78.08%	80.43%	75.72%	decreasing			IC50 (rSmTAChE [1]; [5]): 1.86 µM; IC50 [3, 4]: 1.16 µM
COC(=O)N[C@H](C(=O)N1CC2(CC2)C[C@H]1c1ncc(-c2ccc3c(c2)C(F)(F)c2cc(-c4ccc5nc([C@@H]6[C@H]7CC[C@H](C7)N6C(=O)[C@@H](NC(=O)OC)C(C)C)[nH]c5c4)ccc2-3)[nH]1)C(C)C [BRD-K05446112-001-01-8]	decreasing (weakly active)	66.27%	67.15%	65.39%	inactive			IC50 (rSmTAChE [1]; [5]): > 38 µM
CC(C)(C)[S@@+]([O-])N1Cc2cc(C(=O)N3CCCCC3)nc(-c3cccc(-c4ccccc4F)c3)c2[C@H]1CCO [BRD-K19167425-001-01-6]		62.31%	62.60%	62.02%		decreasing (weakly active)	inactive	
O=C1[C@@H]2[C@H]3CC[C@H](C3)[C@@H]2C(=O)N1C[C@@H]1CCCC[C@H]1CN1CCN(c2nsc3ccccc23)CC1 [BRD-K51143828-003-03-1]	decreasing (weakly active)	77.24%	79.39%	75.09%	inactive			IC50 (rSmTAChE [1]; [5]): > 38 µM
NC(=O)N/N=C/c1ccc(Oc2ccc(F)cc2)cc1 [BRD-K70912147-001-01-8]	inactive	75.84%	80.22%	71.46%	inactive			
COc1ccc(NC(=O)Nc2ccc3c(c2)[C@@H]2C[C@H](CC(=O)NCc4ccccn4)O[C@@H](CO)[C@@H]2O3)cc1 [BRD-K62846431-001-01-3]		77.92%	78.02%	77.82%		decreasing (weakly active)	decreasing (weakly active)	
C[C@H](NC(=O)C[C@H]1C[C@H]2c3cc(NC(=O)Nc4ccc(C(F)(F)F)cc4)ccc3O[C@H]2[C@H](CO)O1)c1ccccc1 [BRD-K17686770-001-01-8]		68.45%	70.27%	66.63%		decreasing (weakly active)	inactive	
N#C[C@H]1[C@H](c2ccc(C3=CCCCC3)cc2)[C@@H](CO)N1S(=O)(=O)c1ccccc1 [BRD-K66729212-001-01-2]		61.17%	61.05%	61.28%		inactive	inactive	
O=C(C[C@@H]1C[C@@H]2c3cc(NC(=O)NC4CCCC4)ccc3O[C@@H]2[C@@H](CO)O1)NCc1ccccc1F [BRD-K71334452-001-01-3]		89.18%	90.25%	88.11%		inactive	inactive	
C[C@]12CCC3c4ccc(OC(=O)c5ccccc5)cc4CCC3C1CC[C@@H]2O (stereo partly shown) [BRD-A74765037-001-01-1]	inactive	66.55%	67.53%	65.56%	inactive			
COc1cccc(C#Cc2ccc([C@@H]3[C@@H](C#N)N(C(=O)c4ccccn4)[C@H]3CO)cc2)c1 [BRD-K32986110-001-01-2, (2S,3R,4R)-4-(hydroxymethyl)-3-[4-[2-(3-methoxyphenyl)ethynyl]phenyl]-1-[oxo(2-pyridinyl)methyl]-2-azetidinecarbonitrile]						decreasing		SI (Hs/Sm) (rSmTAChE [1]): 1.1; inhibition at 20 µM (rSmTAChE [2]; [6]): 71.4%; IC50 ([3]; Table 2, DOS-A library, Inactive = inactive at the maximum tested concentration (40 µM), read-out: IC50 (µM) rHsAChE): 31.2 µM; IC50 ([3]; Table S4, DOS-A (IC50 values; qAC50), read-out: rHsAChE qAC50): 31.3 µM; rHsAChE Data Mode ([3]; dose response curve classification, Table S4, DOS-A): decreasing
COc1ccc(NC(=O)Nc2ccc3c(c2)[C@@H]2C[C@H](CC(=O)NCC4CC4)O[C@@H](CO)[C@@H]2O3)cc1 [BRD-K17285234-001-01-9]		89.37%	90.41%	88.34%		decreasing (weakly active)	inactive	
COc1cccc(C#Cc2ccc([C@@H]3[C@@H](C#N)N(C(=O)c4ccccn4)[C@@H]3CO)cc2)c1 [BRD-K66084396-004-02-2]		72.85%	73.10%	72.60%		inactive	inactive	
CCCNC(=O)Nc1ccc(Oc2ncnc3cc(OC)c(OC)cc23)cc1Cl [BRD-K90993449-001-02-7]	decreasing (weakly active)	77.29%	77.00%	77.59%	inactive			IC50 (rSmTAChE [1]; [5]): > 38 µM
C[C@]12CC[C@@H]3c4ccc(O)cc4C[C@@H](CCCCCCCCC[S+]([O-])CCCC(F)(F)C(F)(F)F)[C@H]3[C@@H]1CC[C@@H]2O (stereo partly shown) [BRD-A85667082-001-11-9]	inactive	64.36%	64.01%	64.71%	decreasing (weakly active)			IC50 [3, 4]: > 13.5 µM
Oc1cc(Cl)ccc1Oc1ccc(Cl)cc1Cl [Triclosan, reference compound]	decreasing				decreasing (weakly active)			SI (Hs/Sm) (rSmTAChE [1]): 5.78; inhibition at 20 µM (rSmTAChE [2]; read-out: HTS/rSmTAChE Inhibition (Ave, %)): 68%
O=C(Cc1cccc(OC(F)(F)F)c1)Nc1ccc(CCCCc2nnc(NC(=O)Cc3ccccn3)s2)nn1 [BRD-K58070273-001-03-3]	decreasing (weakly active)	71.54%	74.28%	68.80%	inactive			IC50 (rSmTAChE [1]; [5]): > 38 µM
O=C(O)Cn1nnc(-c2cc(N3CCC(Oc4cc(F)ccc4Br)CC3)no2)n1 [MK-8245, reference compound]	decreasing							inhibition at 20 µM (rSmTAChE [2]; [6]): 71.5%; SI (Sm/Hs) [3]: 4.71; IC50 ([3]; Table 3, read-out: IC50 (µM) rHsAChE): 7.93 µM; Data Mode (curve class), rHsAChE ([3]; dose response analysis of Drug Repurposing Hub hits against rHsAChE): decreasing
